In ChEMBL document CHEMBL1152256, “Synthesis of Arabino glycosyl triazoles as potential inhibitors of mycobacterial cell wall biosynthesis” (2008):
Converted amounts (≈) assume the structure as drawn. The source made the active and inactive calls. The calls are words filed in the database; no cut-off is given here.

Columns and labels:
[1] = test system: Mycobacterium tuberculosis; assay: Antimycobacterial activity against Mycobacterium bovis BCG by alamar blue assay; format: functional; settings: variant bovis BCG
[2] = test system: Mycobacterium tuberculosis; assay: Antimycobacterial activity against Mycobacterium bovis BCG at 1 mg/mL by alamar blue assay; format: functional, organism-based; settings: variant bovis BCG

| Compound | MIC [1] | Activity [2] |
| --- | --- | --- |
| CCCCCCCCc1cn([C@@H]2O[C@H](CO)[C@@H](O)[C@@H]2O)nn1 | 62 µg/mL (≈ 198 µM) | – |
| CC(C)=CCC/C(C)=C/CC/C(C)=C/COCc1cn([C@@H]2O[C@H](CO)[C@@H](O)[C@@H]2O)nn1 | 62 µg/mL (≈ 142 µM) | – |
| NNC(=O)c1ccncc1 [ISONIAZID] | 0.1 µg/mL (≈ 0.729 µM) | – |
| OC[C@H]1O[C@@H](n2cc(-c3ccccc3)nn2)[C@@H](O)[C@@H]1O | – | inactive |
| CCCCCCc1cn([C@@H]2O[C@H](CO)[C@@H](O)[C@@H]2O)nn1 | 500 µg/mL (≈ 1750 µM) | – |
| CCCCCCCCCCCCCCOCc1cn([C@@H]2O[C@H](CO)[C@@H](O)[C@@H]2O)nn1 | 31 µg/mL (≈ 72.5 µM) | – |
| CCCCCCCCCCc1cn([C@@H]2O[C@H](CO)[C@@H](O)[C@@H]2O)nn1 | 250 µg/mL (≈ 732 µM) | – |
